Data on 20 compounds can be found in patent US9718804B2, “GSK-3 inhibitors” (BRISTOL-MYERS SQUIBB COMPANY, priority 2013, dated 2017).

pIC50: −log10 of the molar value. Like-named read-outs stand apart in the source and are kept apart here.

For experiment [1], the target named is GSK3β (Homo sapiens, UniProt P49841). Briefly: GSK3β kinase assay (Caliper LabChip, fluoresceinated peptide substrate). The following applies: for IC50: first value of the cell, 250 pM enzyme, 20 uM ATP, 20 hours at room temperature, read-out: GSK3β/α (nM): GSK3β IC50. Type of experiment: biochemical. The gist of the method: (§1)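 Reaction: 20 h, room temperature. Quench: 35 mM EDTA. Detection: substrate/product separation by chip electrophoresis. Analysis: eleven concentrations, non-linear regression to IC50.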

In experiment [2] the target is GSK3α (Homo sapiens, UniProt P49840). Briefly: GSK3α kinase assay (Caliper LabChip, fluoresceinated peptide substrate). The class given is biochemical. In a few lines:
as §1

For experiment [3], the system named is pTau. Briefly: pTau assay (no method described). The class given is cell-based.

Chain of GSK3β (P49841 whole entry, species assumed): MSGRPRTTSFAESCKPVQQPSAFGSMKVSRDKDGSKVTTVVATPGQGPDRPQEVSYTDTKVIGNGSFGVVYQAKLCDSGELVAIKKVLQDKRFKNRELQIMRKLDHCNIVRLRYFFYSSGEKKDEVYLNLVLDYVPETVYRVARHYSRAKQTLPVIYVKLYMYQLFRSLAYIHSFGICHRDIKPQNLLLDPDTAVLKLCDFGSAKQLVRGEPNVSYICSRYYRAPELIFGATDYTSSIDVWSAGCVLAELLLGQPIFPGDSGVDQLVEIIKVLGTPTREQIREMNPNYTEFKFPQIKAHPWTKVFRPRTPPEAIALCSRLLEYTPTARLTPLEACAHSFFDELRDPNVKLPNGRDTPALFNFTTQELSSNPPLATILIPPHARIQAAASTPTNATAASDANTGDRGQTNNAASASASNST
Chain of GSK3α (P49840 whole entry, species assumed): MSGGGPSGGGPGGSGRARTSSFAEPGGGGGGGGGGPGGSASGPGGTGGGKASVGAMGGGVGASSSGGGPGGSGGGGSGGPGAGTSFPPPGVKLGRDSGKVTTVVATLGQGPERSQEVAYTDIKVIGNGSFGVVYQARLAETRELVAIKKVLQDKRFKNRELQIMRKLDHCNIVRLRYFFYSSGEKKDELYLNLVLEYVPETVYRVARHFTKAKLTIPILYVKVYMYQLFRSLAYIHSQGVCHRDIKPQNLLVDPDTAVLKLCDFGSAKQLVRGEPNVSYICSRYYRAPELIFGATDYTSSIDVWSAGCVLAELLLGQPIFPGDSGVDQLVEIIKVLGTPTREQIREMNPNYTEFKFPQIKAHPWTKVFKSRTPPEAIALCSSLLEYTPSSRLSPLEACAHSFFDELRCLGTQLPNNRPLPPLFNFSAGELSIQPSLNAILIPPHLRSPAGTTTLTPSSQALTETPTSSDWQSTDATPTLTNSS

As to `O=C(Nc1cncc(-n2ccc(C(F)(F)F)n2)c1)c1ccnc(Nc2ccc(C(F)(F)F)cn2)c1` [Example 120, N-(5-(3-(Trifluoromethyl)-1H-pyrazol-1-yl)pyridin-3-yl)-2-((5-(trifluoromethyl)pyridin-2-yl)amino)isonicotinamide], the IC50 in experiment [1] was 29 nM. In addition, the pIC50 (usually the negative decadic logarithm of the IC50, by convention in mol/L) in experiment [2] is 7.85; in experiment [3], 5.82.
Consider `O=C(Nc1cncc(N2CCOCC2)c1)c1ccnc(Nc2ccc(C(F)(F)F)cn2)c1` [Example 121, N-(5-Morpholinopyridin-3-yl)-2-((5-(trifluoromethyl)pyridin-2-yl)amino)isonicotinamide], for which, in experiment [1], the IC50 worked out at 25 nM. Also, the values for the negative-log IC50 (pIC50) in experiment [2] and in experiment [3] were 7.92 and 5.82, respectively.
The matching figures for `N#Cc1cnn(-c2cncc(NC(=O)c3ccnc(Nc4cccc(C(F)(F)F)n4)c3)c2)c1` [Example 122, N-(5-(4-Cyano-1H-pyrazol-1-yl)pyridin-3-yl)-2-((6-(trifluoromethyl)pyridin-2-yl)amino)isonicotinamide]: 6.9 nM, 8.66 and 5.70.
On to `O=C(Nc1cncc(OCC(F)(F)F)c1)c1ccnc(Nc2cccc(C(F)(F)F)n2)c1` [Example 123, N-(5-(2,2,2-Trifluoroethoxy)pyridin-3-yl)-2-((6-(trifluoromethyl)pyridin-2-yl)amino)isonicotinamide], for which the pIC50 is 8.13 in experiment [1], 8.49 in experiment [2] and 6.28 in experiment [3].
In the case of `O=C(Nc1cncc(OCC2CC2)c1)c1ccnc(Nc2cccc(C(F)(F)F)n2)c1` [Example 124, N-(5-(Cyclopropylmethoxy)pyridin-3-yl)-2-((6-(trifluoromethyl)pyridin-2-yl)amino)isonicotinamide], the IC50 in experiment [1] amounted to 9.4 nM. In addition, the figures for the pIC50 in experiment [2] and in experiment [3] were 8.46 and 5.44, respectively.
`CC1(COc2cncc(NC(=O)c3ccnc(Nc4cccc(C(F)(F)F)n4)c3)c2)CC1` [Example 125, N-(5-((1-Methylcyclopropyl)methoxy)pyridin-3-yl)-2-((6-(trifluoromethyl)pyridin-2-yl)amino)isonicotinamide]: the negative-log IC50 (pIC50) in experiment [1] was 7.92; in experiment [2] it was 8.42; in experiment [3], 5.66.
Regarding `CC1CC1COc1cncc(NC(=O)c2ccnc(Nc3cccc(C(F)(F)F)n3)c2)c1` (stereo not drawn) [Example 126, N-(5-((2-Methylcyclopropyl)methoxy)pyridin-3-yl)-2-((6-(trifluoromethyl)pyridin-2-yl)amino)isonicotinamide], the IC50 in experiment [1] is 9.7 nM. Also, the figures for the pIC50 in experiment [2] and in experiment [3] were 8.32 and 5.49, respectively.
The matching figures for `O=C(Nc1cncc(-c2ccccc2F)c1)c1ccnc(Nc2ccc(C(F)(F)F)cn2)c1` [Example 127, N-(5-(2-Fluorophenyl)pyridin-3-yl)-2-((5-(trifluoromethyl)pyridin-2-yl)amino)isonicotinamide]: 11 nM, 8.22 and 5.76.
The matching figures for `O=C(Nc1cncc(-c2ccccc2Cl)c1)c1ccnc(Nc2ccc(C(F)(F)F)cn2)c1` [Example 128, N-(5-(2-Chlorophenyl)pyridin-3-yl)-2-((5-(trifluoromethyl)pyridin-2-yl)amino)isonicotinamide]: 12 nM, 7.80 and 5.66.
The matching figures for `O=C(Nc1cncc(-c2cc(F)ccc2F)c1)c1ccnc(Nc2ccc(C(F)(F)F)cn2)c1` [Example 129, N-(5-(2,5-Difluorophenyl)pyridin-3-yl)-2-((5-(trifluoromethyl)pyridin-2-yl)amino)isonicotinamide]: 18 nM, 8.01 and 5.68.
In the case of `O=C(Nc1cncc(-c2cccc(F)c2F)c1)c1ccnc(Nc2ccc(C(F)(F)F)cn2)c1` [Example 130, N-(5-(2,3-Difluorophenyl)pyridin-3-yl)-2-((5-(trifluoromethyl)pyridin-2-yl)amino)isonicotinamide], the IC50 in experiment [1] was 42 nM. Besides, the pIC50 in experiment [2] is 7.70; in experiment [3], 5.59.
In the case of `O=C(Nc1cncc(-c2ccccc2F)c1)c1ccnc(Nc2ccc(F)cn2)c1` [Example 131, N-(5-(2-Fluorophenyl)pyridin-3-yl)-2-((5-fluoropyridin-2-yl)amino)isonicotinamide], the negative-log IC50 (pIC50) was 8.21 in experiment [1], 8.52 in experiment [2] and 6.19 in experiment [3].
The matching figures for `Cc1ccnc(Nc2cc(C(=O)Nc3cncc(-c4ccccc4F)c3)ccn2)c1` [Example 132, N-(5-(2-Fluorophenyl)pyridin-3-yl)-2-((4-methylpyridin-2-yl)amino)isonicotinamide]: 8.05, 8.21 and 5.72.
Turning to `Cc1ccc(Nc2cc(C(=O)Nc3cncc(-c4ccccc4F)c3)ccn2)nc1` [Example 133, N-(5-(2-Fluorophenyl)pyridin-3-yl)-2-((5-methylpyridin-2-yl)amino)isonicotinamide], the IC50 in experiment [1] was determined as 7.3 nM. Moreover, the figures for the pIC50 in experiment [2] and in experiment [3] were 8.47 and 5.85, respectively.
The matching figures for `O=C(Nc1cncc(-c2ccccc2F)c1)c1ccnc(Nc2cccc(C(F)(F)F)n2)c1` [Example 134, N-(5-(2-Fluorophenyl)pyridin-3-yl)-2-((6-(trifluoromethyl)pyridin-2-yl)amino)isonicotinamide]: 3.9 nM, 8.82 and 6.33.
The matching figures for `N#Cc1ccc(Nc2cc(C(=O)Nc3cncc(-c4ccccc4F)c3)ccn2)nc1` [Example 135, 2-((5-Cyanopyridin-2-yl)amino)-N-(5-(2-fluorophenyl)pyridin-3-yl)isonicotinamide]: 3 nM, 8.77 and 6.17.
With `O=C(Nc1cncc(-c2ccccc2F)c1)c1ccnc(Nc2cccc(F)n2)c1` [Example 136, N-(5-(2-Fluorophenyl)pyridin-3-yl)-2-((6-fluoropyridin-2-yl)amino)isonicotinamide], the IC50 in experiment [1] worked out at 11 nM. Further, the negative logarithm of the IC50 (pIC50) in experiment [2] is 8.57; in experiment [3] it was 5.96.
The matching figures for `Cc1cccc(Nc2cc(C(=O)Nc3cncc(-c4ccccc4F)c3)ccn2)n1` [Example 137, N-(5-(2-Fluorophenyl)pyridin-3-yl)-2-((6-methylpyridin-2-yl)amino)isonicotinamide]: 7.1 nM, 8.25 and 5.57.
Take `CCc1cccc(Nc2cc(C(=O)Nc3cncc(-c4ccccc4F)c3)ccn2)n1` [Example 138, N-(5-(2-Fluorophenyl)pyridin-3-yl)-2-((6-ethylpyridin-2-yl)amino)isonicotinamide]: the IC50 in experiment [1] is 3.5 nM. Also, the pIC50 in experiment [2] was 8.66; in experiment [3], 5.33.
The matching figures for `COc1cccc(Nc2cc(C(=O)Nc3cncc(-c4ccccc4F)c3)ccn2)n1` [Example 139, N-(5-(2-Fluorophenyl)pyridin-3-yl)-2-((6-methoxylpyridin-2-yl)amino)isonicotinamide]: 5.4 nM, 8.49 and 5.89.
